Common to all, as to assay type: functional
Set-up in all cases: scale not given: the % may be the effect or the level left

The test system of test [1] is Rattus norvegicus. Briefly: Antihypertensive activity in spontaneously hypertensive rat assessed as decrease in blood pressure at 5 mg/kg, po after 5 hrs by tail cuff method.
The subject of test [2] is Rattus norvegicus. Briefly: Antihypertensive activity in spontaneously hypertensive rat assessed as decrease in blood pressure at 5 mg/kg, po after 1 hr by tail cuff method.
For test [3], the system named is Rattus norvegicus. Briefly: Antihypertensive activity in spontaneously hypertensive rat assessed as decrease in blood pressure at 5 mg/kg, po after 2 hrs by tail cuff method.
Test [4] has as its system Rattus norvegicus. Briefly: Antihypertensive activity in spontaneously hypertensive rat assessed as decrease in blood pressure at 5 mg/kg, po after 4 hrs by tail cuff method.
The test system of test [5] is Rattus norvegicus. Briefly: Antihypertensive activity in spontaneously hypertensive rat assessed as decrease in blood pressure at 5 mg/kg, po after 3 hrs by tail cuff method.

Drawing on ChEMBL document CHEMBL1147935, “Synthesis and antihypertensive activity of novel 3-benzyl-2-substituted-3H-[1,2,4]triazolo[5,1-b]quinazolin-9-ones” (2007), this text covers Activity for eleven compounds.

As for `Cc1nn2c(=O)c3ccccc3nc2n1Cc1ccccc1`, the Activity with Rattus norvegicus [1] is listed as 15.3%; in the test with Rattus norvegicus [2], 15.3%; in the test with Rattus norvegicus [3], 31.5%; with Rattus norvegicus [4], 38.8%; in the test on Rattus norvegicus [5], 33.5%.

On to `O=c1c2ccccc2nc2n(Cc3ccccc3)c(CCl)nn12`, for which the Activity in the test on Rattus norvegicus [1] was determined as 6.7%; in the test on Rattus norvegicus [2], 3.7%; with Rattus norvegicus [3], 11.9%; in the test with Rattus norvegicus [4], 17.2%; with Rattus norvegicus [5], 15%.

For the compound `O=c1c2ccccc2nc2n(Cc3ccccc3)c(CN3CCOCC3)nn12`, the Activity with Rattus norvegicus [1] is on record as 19.4%; with Rattus norvegicus [2] it was 8.6%; with Rattus norvegicus [3] it was 10%; in the test on Rattus norvegicus [4] it was 25.6%; with Rattus norvegicus [5] it was 21.7%.

On to `O=c1c2ccccc2nc2n(Cc3ccccc3)c(-c3ccccc3)nn12`, for which the Activity with Rattus norvegicus [1] was 14.1%; with Rattus norvegicus [2] it was 6.1%; in the test on Rattus norvegicus [3] it was 7.1%; in the test on Rattus norvegicus [4], 13.1%; in the test on Rattus norvegicus [5] it was 10.1%.

Regarding `Cc1ccc(-c2nn3c(=O)c4ccccc4nc3n2Cc2ccccc2)cc1`, the Activity worked out at 16.2% with Rattus norvegicus [1]; 4.7% in the test on Rattus norvegicus [2]; 5.6% in the test with Rattus norvegicus [3]; 11.6% in the test on Rattus norvegicus [4]; 9.1% in the test with Rattus norvegicus [5].

For the compound `CCOc1ccc(-c2nn3c(=O)c4ccccc4nc3n2Cc2ccccc2)cc1`, the Activity in the test on Rattus norvegicus [1] is 16.5%; in the test on Rattus norvegicus [2] it was 6.5%; in the test with Rattus norvegicus [3] it was 7.6%; with Rattus norvegicus [4], 13.6%; with Rattus norvegicus [5] it was 9.52%.

For the compound `O=c1c2ccccc2nc2n(Cc3ccccc3)cnn12`, the Activity in the test on Rattus norvegicus [1] turned out to be 19.8%; in the test with Rattus norvegicus [2], 5.4%; in the test on Rattus norvegicus [3], 7.3%; in the test on Rattus norvegicus [4], 20.8%; in the test with Rattus norvegicus [5] it was 17.3%.

Consider `CCCc1nn2c(=O)c3ccccc3nc2n1Cc1ccccc1`, for which the Activity in the test on Rattus norvegicus [1] is given as 15.7%; in the test with Rattus norvegicus [2] it was 13.4%; in the test with Rattus norvegicus [3], 20.5%; with Rattus norvegicus [4], 17%; in the test on Rattus norvegicus [5], 19%.

For the compound `COc1ccc(-c2nn3c(=O)c4ccccc4nc3n2Cc2ccccc2)cc1`, the Activity in the test on Rattus norvegicus [1] is 15.4%; in the test with Rattus norvegicus [2], 5.9%; in the test on Rattus norvegicus [3], 9.7%; in the test with Rattus norvegicus [4], 12.6%; in the test on Rattus norvegicus [5], 9.6%.

Turning to `O=c1c2ccccc2nc2n(Cc3ccccc3)c(CN3CCCCC3)nn12`, the Activity in the test with Rattus norvegicus [1] stood at 13.1%; in the test on Rattus norvegicus [2] it was 3.6%; in the test on Rattus norvegicus [3], 5.1%; with Rattus norvegicus [4], 16.1%; with Rattus norvegicus [5], 9.1%.

Take `COc1cc2nc(N3CCN(C(=O)c4ccco4)CC3)nc(N)c2cc1OC` [PRAZOSIN]: the Activity in the test with Rattus norvegicus [1] worked out at 12.9%; with Rattus norvegicus [2], 30.2%; in the test with Rattus norvegicus [3], 24.6%; with Rattus norvegicus [4], 19.6%; with Rattus norvegicus [5] it was 18%.
